Results from patent publication EP0420552A2, “New antifungal antibiotic, and the production and uses of same” (ZAIDAN HOJIN BISEIBUTSU KAGAKU KENKYU KAI, priority 1989, dated 1991).
In brackets after ≈: the same amount, converted by molar mass.

What was measured:
Cochliobolus miyabeanus = assay: MIC by standard serial dilution method on nutrient agar; type: cell-based; settings: Bipolaris oryzae, 42 h, pH 7, read-out: Minimum inhibitory concentrations
Pyricularia oryzae = assay: microbe, parasite or virus in culture; type: cell-based; settings: 42 h, pH 7, read-out: Minimum inhibitory concentrations
Aspergillus niger F-16 = assay: MIC by standard serial dilution method on nutrient agar; type: cell-based; settings: F16, nutrient agar medium containing 1% glucose (pH 7.0), 27°C, 42 hours, read-out: Minimum inhibitory concentrations
Protocol: (§1) The minimum inhibitory concentrations (MIC., mcg/ml) of dexylosylbenanomicin A against a variety of fungi were determined by a standard serial dilution method on a nutrient agar medium containing 1% glucose (pH 7.0) after incubation at 27°C for 42 hours and are shown in Table 1 below.

Candida Yu-1200 = assay: as above; type: cell-based; settings: YU1200, nutrient agar medium containing 1% glucose (pH 7.0), 27°C, 42 hours, read-out: Minimum inhibitory concentrations
Protocol: as §1

Candida albicans 3147 = assay: as above; type: cell-based; settings: nutrient agar medium containing 1% glucose (pH 7.0), 27°C, 42 hours, read-out: Minimum inhibitory concentrations
Protocol: as §1

Candida krusei F-5 = assay: as above; type: cell-based; settings: Pichia kudriavzevii, F5, nutrient agar medium containing 1% glucose (pH 7.0), 27°C, 42 hours, read-out: Minimum inhibitory concentrations
Protocol: as §1

[1] = system: Candida pseudotropicalis F-2; assay: as above; type: cell-based; settings: Kluyveromyces marxianus, F2, nutrient agar medium containing 1% glucose (pH 7.0), 27°C, 42 hours, read-out: Minimum inhibitory concentrations
Protocol: as §1

Candida tropicalis F-1 = assay: as above; type: cell-based; settings: F1, nutrient agar medium containing 1% glucose (pH 7.0), 27°C, 42 hours, read-out: Minimum inhibitory concentrations
Protocol: as §1

[2] = system: Cryptococcus neoformans F-10; assay: as above; type: cell-based; settings: F10, nutrient agar medium containing 1% glucose (pH 7.0), 27°C, 42 hours, read-out: Minimum inhibitory concentrations
Protocol: as §1

Pellicularia sasakii = assay: as above; type: cell-based; settings: nutrient agar medium containing 1% glucose (pH 7.0), 27°C, 42 hours, read-out: Minimum inhibitory concentrations
Protocol: as §1

[3] = system: Saccharomyces cerivisiae F-7; assay: as above; type: cell-based; settings: F7, nutrient agar medium containing 1% glucose (pH 7.0), 27°C, 42 hours, read-out: Minimum inhibitory concentrations
Protocol: as §1

[4] = system: Trichophyton asteroides 429; assay: as above; type: cell-based; settings: nutrient agar medium containing 1% glucose (pH 7.0), 27°C, 42 hours, read-out: Minimum inhibitory concentrations
Protocol: as §1

[5] = system: Trichophyton mentagrophytes (883); assay: as above; type: cell-based; settings: nutrient agar medium containing 1% glucose (pH 7.0), 27°C, 42 hours, read-out: Minimum inhibitory concentrations
Protocol: as §1

Xanthomonas citri = assay: as above; type: cell-based; settings: 42 h, pH 7, read-out: Minimum inhibitory concentrations
Xanthomonas oryzae = assay: microbe, parasite or virus in culture; type: cell-based; settings: 42 h, pH 7, read-out: Minimum inhibitory concentrations
[6] = Acute toxicity in mice upon intravenous administration; type: in vivo; settings: ICR mice (female, 4-week old, body weight of 19 to 21 g)
Protocol: Dexylosylbenanomicin A is of low toxicity to mammals, as it was shown that for estimation of acute toxicity in mice upon intravenous administration, dexylosylbenanomicin A was administered via the intravenous route to ICR mice (female, 4-week old, body weight of 19 to 21 g), the mice tolerated a dosage of 300 mg/kg of this new antibiotic.

[7] = Solubility in organic solvents

For COc1cc(O)c2c(c1)C(=O)c1c(cc3c(c1O)-c1c(cc(C)c(C(=O)N[C@H](C)C(=O)O)c1O)[C@H](O[C@@H]1O[C@H](C)[C@H](O)[C@H](O)[C@H]1O)[C@H]3O)C2=O [dexylosylbenanomicin A], which MIC (Cochliobolus miyabeanus) is on record?
The MIC was over 25 µg/mL.

What about the MIC (Pyricularia oryzae) of the same compound?
The MIC was 50 µg/mL (≈ 71.9 µM).

And the MIC (Aspergillus niger F-16)?
The MIC was 50 µg/mL (≈ 71.9 µM).

What about the MIC (Candida Yu-1200) of the same compound?
The MIC was 6.25 µg/mL (≈ 8.98 µM).

And the MIC (Candida albicans 3147)?
The MIC was 12.5 µg/mL (≈ 18 µM).

What about the MIC (Candida krusei F-5) of the same compound?
Its MIC is 50 µg/mL (≈ 71.9 µM).

What about the MIC [1] of the same compound?
Its MIC is 3.13 µg/mL (≈ 4.5 µM).

What about the MIC (Candida tropicalis F-1) of the same compound?
The MIC was 12.5 µg/mL (≈ 18 µM).

And the MIC [2]?
Its MIC is 12.5 µg/mL (≈ 18 µM).

What about the MIC (Pellicularia sasakii) of the same compound?
The MIC was 25 µg/mL (≈ 35.9 µM).

What about the MIC [3] of the same compound?
The MIC was 3.13 µg/mL (≈ 4.5 µM).

And the MIC [4]?
The MIC was over 25 µg/mL.

What about the MIC [5] of the same compound?
Its MIC is over 25 µg/mL.

And the MIC (Xanthomonas citri)?
The MIC was over 100 µg/mL.

What about the MIC (Xanthomonas oryzae) of the same compound?
The MIC was 100 µg/mL (≈ 144 µM).

And the “acute toxicity: tolerated dosage” value [6]?
Its value is 300 mg/kg.

What about the Solubility ([7]; in chloroform, ethyl acetate, acetone and methanol) of the same compound?
Its Solubility is “Sparingly soluble”.

And the Solubility ([7]; in dimethyl sulfoxide and N,N-dimethylformamide)?
Its Solubility is “soluble”.
